According to patent publication US11793779B2, “Hica for use in prophylaxis and/or treatment of a disease or condition involving degradation of cartilage and/or disruption of cartilage homeostasis and/or integrity” (Salarusta Oy, priority 2020, dated 2023):

Columns and labels:
[1] = tested on: type II collagen C2C neoepitope; test: Serum type II collagen C2C neoepitope (ELISA) in 4-week double-blind study; assay type: in vivo, human
Protocol: (§1) In order to assess the effects of HICA on type II collagen and hyaluronic acid in healthy adults in vivo a study was conducted, where fifteen healthy male athletes (age 21.3±2.8 yr) volunteered for the 4-week study with double-blind design (Table 1). They were randomized to two parallel groups. Subjects in Group 1 (n=8, age 22.8±4.6 yr, height 179±6 cm, weight 76.2±6.9 kg, fat % 14.1±3.7%) received 583.2 mg of sodium salt of HICA (corresponding 500 mg of HICA) thrice a day for 4 weeks, and those in Group 2 (n=7, age 21.3±3.0 yr, height 178±5 cm, weight 73.5±5.0 kg, fat % 11.1±3.0%) received placebo (650 mg of maltodextrin) thrice a day for the same period. The subjects and the controls received repacked substance of equal volume (1.5 ml) which they were advised to mix with liquid. The subjects and the controls kept physical training constant during the study period, and they kept training daily. Serum specimens were obtained at baseline and in the end of the treatment. Specimens were aliquoted and immediately frozen; serum was collected and frozen at −70° C.
A kit for determination of the type II collagen C2C neoepitope was provided by Ibex Technologies (Montreal, Quebec, Canada). It was measured by means of an enzyme-linked immunosorbent assay (ELISA) (Kojima, Mwale et al. 2001). […]

[2] = target: T1, recombinant human ADAMTS-5 (Homo sapiens, UniProt Q9UNA0); test: ADAMTS-5 mediated break down of aggrecan (SDS-PAGE, silver stain); assay type: biochemical; conditions: 10% racemic HICA, pH 7.4, incubation 2 d, FIG. 1 line 5
T1 construct: purchased Chemicon International Inc. CC1034
T1 sequence (Q9UNA0 262-930): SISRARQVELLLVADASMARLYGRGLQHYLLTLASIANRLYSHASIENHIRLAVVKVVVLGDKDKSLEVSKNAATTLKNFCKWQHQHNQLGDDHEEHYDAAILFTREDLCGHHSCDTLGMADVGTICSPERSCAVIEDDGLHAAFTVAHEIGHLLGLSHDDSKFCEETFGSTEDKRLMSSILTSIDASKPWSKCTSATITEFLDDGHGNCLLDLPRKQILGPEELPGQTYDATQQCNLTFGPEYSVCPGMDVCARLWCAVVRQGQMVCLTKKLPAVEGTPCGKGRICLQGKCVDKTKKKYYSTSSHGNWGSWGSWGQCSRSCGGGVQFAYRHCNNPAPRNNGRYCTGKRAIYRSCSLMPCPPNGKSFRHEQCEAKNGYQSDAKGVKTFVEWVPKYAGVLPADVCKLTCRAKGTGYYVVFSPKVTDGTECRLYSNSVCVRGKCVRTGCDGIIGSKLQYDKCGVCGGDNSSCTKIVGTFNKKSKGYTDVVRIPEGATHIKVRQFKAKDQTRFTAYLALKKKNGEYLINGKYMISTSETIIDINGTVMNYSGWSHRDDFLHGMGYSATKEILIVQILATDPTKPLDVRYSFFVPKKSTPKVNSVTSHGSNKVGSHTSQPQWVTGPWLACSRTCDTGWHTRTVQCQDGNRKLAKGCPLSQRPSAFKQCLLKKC
Protocol: As positive inhibitor controls Ilomastat (Ilo, CC1010, Millipore) and chlorhexidine (CHX, Corsodyl®, [2 mg/ml] (GlaxoSmithKline, Brøndby, Denmark) were used and 50 mM Tris-HCl-buffer (TNC): pH 7.5; 0.2 M NaCl; 1.0 mM CaCl2) was used as neutral assay buffer.
MMP-13 was preincubated 1 hour at 37° C. with p-aminophenylmercuric acetate (APMA, A9563, Sigma-Aldrich) to optimally activate (pro)MMP-13. As substrate, Aggrecan was added and then ADAMTS-5 or activated MMP-13 as catalytic/proteolytic enzyme and TNC, as neutral control, and 10% HICA, CHX or Ilo as protease/MMP-inhibitors let incubated together from 1 hour (h) to 2 days (d). The enzyme reactions terminated by boiling with modified Laemmli buffer. The samples were analysed by 8% SDS-PAGE and after electrophoresis the defragmentation of Aggrecan was visualised using Silver Stain Pierce®.
Sample with concentrations in lines: • 1. 0.25 μl molecular weight standards. Bio-Rad • 2. 4.2 μl Aggrecan (0.5 μg/μl) • 3. 4 μl ADAMTS-5 (0.1 μg/μl) • 4. 4.2 μl Aggrecan+4 μl ADAMTS-5+6 μl TNC-buffer. inc: 2d • 5. 4.2 μl Aggrecan+4 μl ADAMTS-5+6 μl 10% HICA. inc: 2d • 6. 4.2 μl Aggrecan+4 μl ADAMTS-5+6 μl CHX (2 mg/ml). inc: 2d • 7. 1 μl MMP-13 (0.2 μg/μl)+3 μl 2 mM APMA+6 μl TNC • 8. 4.2 μl Aggrecan+1 μl MMP-13 (0.2 μg/μl)+3 μl 2 mM APMA+6 μl TNC. inc: 1h • 9. 4.2 μl Aggrecan+1 μl MMP-13 (0.2 μg/μl)+3 μl 2 mM APMA+6 μl TNC. inc: 2d • 10. […]

[3] = Characteristics of the subjects after four weeks on HICA; assay type: in vivo, human; conditions: Mean ± SD
Protocol: as §1
The Analysis of Variance (ANOVA) was used to assess statistical differences between the treatment groups. Data were handled as changes between the measurements before and after the treatments. Further, paired t-test was used to compare values before and after treatments. Probabilities less than 0.05 were regarded as statistically significant. Statistical analyses were carried out using the software program Systat for Windows (Statistics, Version 9, Evanston, IL, USA, 1992). The results are presented as means±SEM.

Compound: CC(C)CC(O)C(=O)O (racemic) [HICA, 2-hydroxy-4-methylpentanoic acid]
- S-C2C after HICA ([1]; Mean ± SEM, n=8 healthy male athletes, sodium salt of HICA corresponding 500 mg HICA thrice a day for 4 weeks, before 204 ± 14, p = 0.069 vs placebo): 189 ± 10 ng/mL
- decrease in serum C2C ([1]; during 4-week administration of HICA, placebo 2%, p=0.069 between the groups): 8%
- inhibition of break down of Aggrecan by ADAMTS-5 [2]: inhibited the break down of Aggrecan
- Hematocrite after HICA ([3]; before 0.44 ± 0.02, p = n.s. vs placebo): 0.45 ± 0.02
- Body Fat procent after HICA ([3]; before 14.1 ± 3.7, p = n.s. vs placebo): 14.0 ± 2.5%
- Weight after HICA ([3]; before 76.2 ± 6.9, p = n.s. vs placebo): 76.5 ± 8.4 kg
- Hemoglobin after HICA ([3]; before 152 ± 7, p = n.s. vs placebo): 151 ± 5 g/L
